Measurements reported in article PMC7756341, “Liposomal FRET Assay Identifies Potent Drug‐Like Inhibitors of the Ceramide Transport Protein (CERT)” (Chemistry (Weinheim an Der Bergstrasse, Germany), 2020).
“And” between values parts separate entries of the source, which are not always exact repeats. Identical values can stand only once.

What was measured:
[1] = tested on: HeLa cells; test: Sphingolipid content of treated HeLa cells by quantitative mass spectrometry; assay type: cell-based; settings: for Cer16 / Cer18 / Cer20 / Cer22 / Cer24 / Cer24:1 / Cer total / S1P / SM16 / SM18 / SM20 / SM22 / SM24 / SM24:1 / SM total / Sph / ratio total SM/Cer: HeLa, 42h, single replicates; for Cer16 / Cer18 / Cer20 / Cer22 / Cer24 / Cer24:1 / Cer total / S1P / SM16 / SM18 / SM20 / SM22 / SM24 / SM24:1 / SM total / Sph: 500.000 cells per sample
Protocol: 5.2 Cellular experiment for lipidomic analysis
Hela cells were cultured in six well plates (177000 cells per well) under standard growth conditions (DMEM with 4mM L-glutamine, 10% FBS, 1% Penicillin-Streptomycin; CO2 incubator with […]
37°C, 5% CO2). […]
After incubation, […]
the adherent cells were washed twice with ice-cold PBS and harvested by treatment with trypsin.
Cells were counted using a Countess II cell counter ( Invitrogen) and adjusted to 500.000 cells per sample. Each sample was then treated as described below.
6. Details for experimental lipidomics
Cells were subjected to lipid extraction using 1.5 mL methanol/chloroform (2:1, v:v) as described. The extraction solvent contained C17-ceramide (Cer17) and C16 -d31-sphingomyelin (d31-SM16) (both Avanti Polar Lipids, Alabaster, USA) as internal standards. Chromatographic separations were achieved on a 1260 Infinity HPLC (Agilent Technologies, Waldbronn, Germany) equipped with a Poroshell 120 EC-C8 column (3.0 × 150 mm, 2.7 µm; Agilent Technologies). A mobile phase system consisting of water (solvent A) and acetonitrile/methanol (1:1, v:v; solvent B), both acidified with 0.1% formic acid, was used for gradient elution at an initial composition of 40:60 (A:B, v:v) and a flow rate of 0.5 mL/min. MS/MS analyses were carried out using a 6490 triple-quadrupole mass spectrometer (Agilent Technologies) operating in the positive electrospray ionization mode (ESI+). The following ion source parameters were set: sheath gas temperature, 375 °C; sheath gas flow, 12 L/min of nitrogen; nebulizer pressure, 30 psi; drying gas temperature, 200 °C; drying gas flow, 15 L/min of nitrogen; capillary voltage, 4000 V; nozzle voltage, 1500 V; iFunnel high pressure RF voltage, 150 V and iFunnel low pressure RF voltage, 60 V. The following mass transitions were recorded (collision energies of 25 eV for all transitions): ceramides: m/z […]
with MassHunter Software (Agilent Technologies). Significance of differences between two samples was calculated by student’s t -test. Asterisks indicate significant differences between treated and untreated samples: * p<0.05; ** p<0.01; *** p<0.005.
Table S1. Sphingolipid content of treated cells.
(§1) (1 picture or pasted object on this page, not shown here)

[2] = tested on: HeLa cells; test: Cellular localization of BODIPY-ceramide by confocal microscopy; assay type: cell-based; settings: 10 µM inhibitor, 2 h
Protocol: 5.1 Cellular Localization of BODIPY-Ceramide
HeLa cells were seeded in 8 well chamber slides (ibidi µ-Slide 8 Well) in RPMI 1640 medium supplemented with 10% (v/v) heat‐inactivated FCS, 1 mM sodium pyruvate and 2 mM L-glutamine at 37 °C and 5% (v/v) CO2 in a humidified incubator. The day after, cells were incubated with inhibitors for 2 h at a concentration of 10 µM or left untreated by replacing the medium with fresh medium supplemented with the respective inhibitors. After 2 h of incubation, BODIPY FL C5-ceramide (Thermo Fisher) was added to a final concentration of 0,25 µM and imaging was immediately done using an LSM 780 laser scanning confocal microscope (Carl Zeiss). No additional wash steps were performed. After 1 h of incubation, DNA was counterstained using Hoechst 33342. For quantification of BODIPY-Ceramide trafficking, cells were transfected with pECFP-GalT the day before inhibitor incubation for the expression of an eCFP fusion of the human galactosyltransferase (GalT; amino acids 1-60), which localizes at the Golgi apparatus. After incubation with the respective inhibitors (see above), cells were imaged at 30 min post addition of BODIPY FL C5-ceramide. Mean BODIPY intensities of regions of interest surrounding eCFP-GalT-positive Golgi stacks were measured (40 cells per biological replicate, 4 biological replicates in total) using ImageJ software (Rasband, W.S., ImageJ, U. S. National Institutes of Health, Bethesda, Maryland, USA, https://imagej.nih.gov/ij/, 1997-2018) and divided by the total BODIPY intensity detected in the field of view. Quantification (Fig 10B) is expressed as normalized intensity ratio (GA/total).
Figure S10. A Uptake of BODIPY FL C5-ceramide to HeLa cells assessed by normalized fluorescence intensity B Distribution of BODIPY FL C5-ceramide by normalized fluorescence […]
as §1
Figure S11. BODIPY-Ceramide trafficking. Confocal images showing distribution of BODIPY FL C5-ceramide (green) and Golgi apparatus costaining (eCFP-GalT; blue) in HeLa cells pretreated with 10 µM of respective inhibitors or left untreated. Figures show representative images (n = 4 biological replicates with 40 cells per biological replicate); scale bars, 10 µm.

Structure (SMILES): O=C(NC1CCN(CCCCC2(C(=O)NCC(F)(F)F)c3ccccc3-c3ccccc32)CC1)c1ccccc1-c1ccc(C(F)(F)F)cc1 [8E8, lomitapide]
- effect on sphingomyelin at 5 μM ([1]; HeLa cells, 5 μM): drastic reduction
- effect on total sphingomyelin ([1]; HeLa cells, 48 hours, serum-reduced medium): dose‐dependent reduction
- potency on relation of total sphingomyelin to ceramide compared to HPA-12 ([1]; HeLa cells, all concentrations): increased potency
- Cer16 ([1]; 1 µM): 66,02 pmol/sample and 57,09 pmol/sample and 60,15 pmol/sample
- Cer18 ([1]; 1 µM): 7,66 pmol/sample and 6,67 pmol/sample and 6,95 pmol/sample
- Cer20 ([1]; 1 µM): 2,25 pmol/sample and 1,77 pmol/sample and 2,84 pmol/sample
- Cer22 ([1]; 1 µM): 14,47 pmol/sample and 13,05 pmol/sample and 13,35 pmol/sample
- Cer24 ([1]; 1 µM): 34,96 pmol/sample and 30,93 pmol/sample and 30,90 pmol/sample
- Cer24:1 ([1]; 1 µM): 73,09 pmol/sample and 65,48 pmol/sample and 68,22 pmol/sample
- Cer total ([1]; 1 µM): 198,45 pmol/sample and 178,06 pmol/sample and 179,34 pmol/sample
- S1P ([1]; 1 µM): 1,12 pmol/sample and 1,00 pmol/sample and 0,85 pmol/sample
- SM16 ([1]; 1 µM): 1825,61 pmol/sample and 1823,48 pmol/sample and 1739,12 pmol/sample
- SM18 ([1]; 1 µM): 59,37 pmol/sample and 58,79 pmol/sample and 52,57 pmol/sample
- SM20 ([1]; 1 µM): 20,60 pmol/sample and 20,35 pmol/sample and 17,81 pmol/sample
- SM22 ([1]; 1 µM): 115,26 pmol/sample and 124,65 pmol/sample and 105,99 pmol/sample
- SM24 ([1]; 1 µM): 173,05 pmol/sample and 183,46 pmol/sample and 158,17 pmol/sample
- SM24:1 ([1]; 1 µM): 817,85 pmol/sample and 842,40 pmol/sample and 760,17 pmol/sample
- SM total ([1]; 1 µM): 3011,74 pmol/sample and 3053,13 pmol/sample and 2833,83 pmol/sample
- Sph ([1]; 1 µM): 3,57 pmol/sample and 3,81 pmol/sample and 3,42 pmol/sample
- ratio total SM/Cer ([1]; 1 µM): 16,8 and 15,4 and 15,9
- Cer16 ([1]; 2.5 µM): 74,51 pmol/sample and 82,98 pmol/sample and 79,41 pmol/sample
- Cer18 ([1]; 2.5 µM): 8,90 pmol/sample and 10,02 pmol/sample and 9,50 pmol/sample
- Cer20 ([1]; 2.5 µM): 2,09 pmol/sample and 2,26 pmol/sample and 2,11 pmol/sample
- Cer22 ([1]; 2.5 µM): 14,83 pmol/sample and 17,07 pmol/sample and 15,69 pmol/sample
- Cer24 ([1]; 2.5 µM): 32,62 pmol/sample and 36,00 pmol/sample and 36,33 pmol/sample
- Cer24:1 ([1]; 2.5 µM): 74,15 pmol/sample and 79,98 pmol/sample and 77,75 pmol/sample
- Cer total ([1]; 2.5 µM): 207,10 pmol/sample and 228,30 pmol/sample and 220,79 pmol/sample
- S1P ([1]; 2.5 µM): 0,75 pmol/sample and 1,06 pmol/sample and 1,09 pmol/sample
- SM16 ([1]; 2.5 µM): 1630,84 pmol/sample and 1823,72 pmol/sample and 1666,50 pmol/sample
- SM18 ([1]; 2.5 µM): 53,11 pmol/sample and 57,73 pmol/sample and 55,13 pmol/sample
- SM20 ([1]; 2.5 µM): 19,44 pmol/sample and 21,11 pmol/sample and 18,70 pmol/sample
- SM22 ([1]; 2.5 µM): 103,91 pmol/sample and 113,22 pmol/sample and 105,74 pmol/sample
- SM24 ([1]; 2.5 µM): 157,53 pmol/sample and 168,83 pmol/sample and 156,81 pmol/sample
- SM24:1 ([1]; 2.5 µM): 722,25 pmol/sample and 731,59 pmol/sample and 797,90 pmol/sample
- SM total ([1]; 2.5 µM): 2725,14 pmol/sample and 2696,43 pmol/sample and 2982,51 pmol/sample
- Sph ([1]; 2.5 µM): 3,63 pmol/sample and 3,39 pmol/sample and 3,50 pmol/sample
- ratio total SM/Cer ([1]; 2.5 µM): 12,3 and 13,0 and 13,1
- Cer16 ([1]; 5 µM): 89,79 pmol/sample and 129,48 pmol/sample and 69,03 pmol/sample
- Cer18 ([1]; 5 µM): 7,26 pmol/sample and 11,79 pmol/sample and 5,12 pmol/sample
- Cer20 ([1]; 5 µM): 1,69 pmol/sample and 2,84 pmol/sample and 1,31 pmol/sample
- Cer22 ([1]; 5 µM): 12,62 pmol/sample and 18,55 pmol/sample and 9,43 pmol/sample
- Cer24 ([1]; 5 µM): 22,56 pmol/sample and 31,76 pmol/sample and 18,74 pmol/sample
- Cer24:1 ([1]; 5 µM): 66,19 pmol/sample and 87,40 pmol/sample and 47,19 pmol/sample
- Cer total ([1]; 5 µM): 200,11 pmol/sample and 281,82 pmol/sample and 150,81 pmol/sample
- S1P ([1]; 5 µM): 0,37 pmol/sample and 0,42 pmol/sample and 0,53 pmol/sample
- SM16 ([1]; 5 µM): 450,01 pmol/sample and 691,68 pmol/sample and 345,52 pmol/sample
- SM18 ([1]; 5 µM): 25,94 pmol/sample and 35,37 pmol/sample and 18,65 pmol/sample
- SM20 ([1]; 5 µM): 8,48 pmol/sample and 11,39 pmol/sample and 5,85 pmol/sample
- SM22 ([1]; 5 µM): 36,80 pmol/sample and 52,48 pmol/sample and 26,91 pmol/sample
- SM24 ([1]; 5 µM): 50,34 pmol/sample and 70,92 pmol/sample and 33,38 pmol/sample
- SM24:1 ([1]; 5 µM): 200,60 pmol/sample and 298,06 pmol/sample and 137,99 pmol/sample
- SM total ([1]; 5 µM): 772,16 pmol/sample and 1159,90 pmol/sample and 568,29 pmol/sample
- Sph ([1]; 5 µM): 3,46 pmol/sample and 3,80 pmol/sample and 3,91 pmol/sample
- ratio total SM/Cer ([1]; 5 µM): 3,9 and 4,1 and 3,8
- effect on intracellular distribution of BODIPY-Cer [2]: significantly influenced
